The target in assay [1] is T1, Kinesin-like protein KIFC1 (Homo sapiens) (UniProt Q9BW19).
T1 sequence (whole entry): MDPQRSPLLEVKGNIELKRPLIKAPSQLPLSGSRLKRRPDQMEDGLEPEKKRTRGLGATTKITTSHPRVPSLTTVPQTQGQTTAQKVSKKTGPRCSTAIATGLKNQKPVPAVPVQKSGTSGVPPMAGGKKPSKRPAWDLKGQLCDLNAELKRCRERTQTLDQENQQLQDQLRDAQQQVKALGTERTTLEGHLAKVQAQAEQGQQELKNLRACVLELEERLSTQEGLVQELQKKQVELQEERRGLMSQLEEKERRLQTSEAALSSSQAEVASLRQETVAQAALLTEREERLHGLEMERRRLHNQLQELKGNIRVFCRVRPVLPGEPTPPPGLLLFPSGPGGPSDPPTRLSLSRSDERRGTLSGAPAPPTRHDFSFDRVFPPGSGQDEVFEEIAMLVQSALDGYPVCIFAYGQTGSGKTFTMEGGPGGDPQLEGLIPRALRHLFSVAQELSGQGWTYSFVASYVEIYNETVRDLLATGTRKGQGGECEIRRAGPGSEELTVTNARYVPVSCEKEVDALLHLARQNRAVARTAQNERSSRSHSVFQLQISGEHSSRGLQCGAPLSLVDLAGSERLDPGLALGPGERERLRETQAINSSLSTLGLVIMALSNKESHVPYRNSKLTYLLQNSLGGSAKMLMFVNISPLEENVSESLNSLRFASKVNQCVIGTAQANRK
Briefly: Inhibition of HSET at 10 uM by puruvate kinsase-lactate dehydrogenase detection system.

Assay [2] addresses T2, Chromosome-associated kinesin KIF4A (Homo sapiens) (UniProt O95239).
T2 sequence (whole entry): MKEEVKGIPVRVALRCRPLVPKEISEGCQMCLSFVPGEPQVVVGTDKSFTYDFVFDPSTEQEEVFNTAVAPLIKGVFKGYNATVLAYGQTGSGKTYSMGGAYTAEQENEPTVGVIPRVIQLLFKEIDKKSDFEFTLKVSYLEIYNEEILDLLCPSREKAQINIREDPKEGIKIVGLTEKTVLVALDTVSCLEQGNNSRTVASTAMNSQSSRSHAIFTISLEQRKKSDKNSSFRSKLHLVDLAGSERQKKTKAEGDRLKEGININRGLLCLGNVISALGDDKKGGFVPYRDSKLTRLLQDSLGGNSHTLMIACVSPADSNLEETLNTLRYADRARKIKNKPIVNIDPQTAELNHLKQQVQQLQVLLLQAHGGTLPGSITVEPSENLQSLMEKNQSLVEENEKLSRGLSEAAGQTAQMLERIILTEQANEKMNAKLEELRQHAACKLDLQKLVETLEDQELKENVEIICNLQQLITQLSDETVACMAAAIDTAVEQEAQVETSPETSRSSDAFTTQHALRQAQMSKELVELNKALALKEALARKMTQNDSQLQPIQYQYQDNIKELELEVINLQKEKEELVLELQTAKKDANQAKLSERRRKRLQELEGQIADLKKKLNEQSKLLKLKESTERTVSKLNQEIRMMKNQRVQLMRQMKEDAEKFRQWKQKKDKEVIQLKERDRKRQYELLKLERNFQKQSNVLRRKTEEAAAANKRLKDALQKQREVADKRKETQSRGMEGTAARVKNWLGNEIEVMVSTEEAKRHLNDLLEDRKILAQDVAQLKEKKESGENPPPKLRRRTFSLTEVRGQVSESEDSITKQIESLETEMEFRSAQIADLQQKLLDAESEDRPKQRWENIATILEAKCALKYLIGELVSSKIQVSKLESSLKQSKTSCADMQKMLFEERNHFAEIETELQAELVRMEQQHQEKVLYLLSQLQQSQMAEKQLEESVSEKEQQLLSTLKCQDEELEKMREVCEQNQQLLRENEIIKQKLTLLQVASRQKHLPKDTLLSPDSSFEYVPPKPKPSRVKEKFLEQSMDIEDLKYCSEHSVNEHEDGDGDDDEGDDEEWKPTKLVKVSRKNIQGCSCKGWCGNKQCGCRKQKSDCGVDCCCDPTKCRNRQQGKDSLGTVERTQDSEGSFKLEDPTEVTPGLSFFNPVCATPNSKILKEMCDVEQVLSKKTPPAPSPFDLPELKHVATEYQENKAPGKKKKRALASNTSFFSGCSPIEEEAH
Briefly: Inhibition of Kif4 at 10 uM by puruvate kinsase-lactate dehydrogenase detection system.

The target of assay [3] is T3, Kinesin-like protein KIF11 (Homo sapiens, UniProt P52732).
T3 sequence (P52732 whole entry): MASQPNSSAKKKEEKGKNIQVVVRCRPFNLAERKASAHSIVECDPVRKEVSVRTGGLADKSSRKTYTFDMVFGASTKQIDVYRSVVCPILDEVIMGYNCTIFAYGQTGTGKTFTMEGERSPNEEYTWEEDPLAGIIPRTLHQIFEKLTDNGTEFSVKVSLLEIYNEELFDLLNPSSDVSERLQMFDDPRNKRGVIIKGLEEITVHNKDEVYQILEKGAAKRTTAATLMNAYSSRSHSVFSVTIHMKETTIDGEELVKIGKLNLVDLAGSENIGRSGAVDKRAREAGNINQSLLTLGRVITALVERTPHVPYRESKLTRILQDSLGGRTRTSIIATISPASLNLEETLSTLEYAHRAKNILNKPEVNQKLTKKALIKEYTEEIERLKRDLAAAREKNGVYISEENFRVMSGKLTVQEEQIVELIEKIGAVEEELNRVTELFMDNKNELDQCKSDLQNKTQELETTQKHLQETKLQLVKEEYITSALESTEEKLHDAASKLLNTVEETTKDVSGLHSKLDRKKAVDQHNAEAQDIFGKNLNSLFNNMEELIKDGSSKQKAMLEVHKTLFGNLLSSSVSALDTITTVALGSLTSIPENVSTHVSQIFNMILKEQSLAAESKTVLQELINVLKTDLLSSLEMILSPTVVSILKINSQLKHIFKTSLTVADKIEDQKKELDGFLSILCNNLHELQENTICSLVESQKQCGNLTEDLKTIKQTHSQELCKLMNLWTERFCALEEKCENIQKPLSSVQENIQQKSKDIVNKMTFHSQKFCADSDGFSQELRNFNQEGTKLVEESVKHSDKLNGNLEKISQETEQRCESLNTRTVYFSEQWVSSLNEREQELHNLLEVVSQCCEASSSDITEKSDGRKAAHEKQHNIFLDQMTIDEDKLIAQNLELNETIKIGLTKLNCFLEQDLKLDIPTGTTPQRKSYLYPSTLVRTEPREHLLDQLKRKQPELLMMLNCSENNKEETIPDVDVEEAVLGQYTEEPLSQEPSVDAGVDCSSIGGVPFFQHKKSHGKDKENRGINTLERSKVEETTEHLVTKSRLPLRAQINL
Briefly: Inhibition of human wild type Eg5 using varying ATP levels in presence of saturating levels of microtubule by Lineweaver-Burke plot.

Assay [4] has as its target T4, Kinesin-like protein KIF11 (Homo sapiens) (UniProt P52732).
T4 sequence (whole entry): T3 sequence (P52732 whole entry)
Briefly: Competitive inhibition of human wild type Eg5 with respect to ATP using varying ATP levels in presence of saturating levels of microtubule by Lineweaver-Burke plot.

The structures appear in SMILES notation. Activity calls are given as the source filed them. The calls are words filed in the database; no cut-off is given here.

As a reminder, the inhibition is how much of the control response was suppressed. Regarding `Cc1ccc(C(=O)N(CCCN)[C@@H](c2nc3cc(Cl)ccc3c(=O)n2Cc2ccccc2)C(C)C)cc1`, the inhibition worked out at 4.2% in assay [1] and 4.3% in assay [2].
One may read the Ki as the equilibrium dissociation constant of an inhibitor or competing ligand from its target. Regarding `NC(=O)Nc1ccc(-c2ccc(C(F)(F)F)cc2)cc1F`, the inhibition in assay [1] amounted to 2.6%; in assay [2], 8.2%. Further, the Ki in assay [3] stood at 8.8 nM. Moreover, the inhibition result in assay [4] is “Active”.
The like results for `O=C1CCc2cc(-c3ccc(C(F)(F)F)cc3)ccc2N1` were, in that order, 4.1%, 6.5%, 1.8 nM and “Active”.

The record behind these values is ChEMBL document CHEMBL1221208, “ATP-competitive inhibitors of the mitotic kinesin KSP that function via an allosteric mechanism” (Nat Chem Biol, 2007).
